{
  "source": "paper PMC4872784",
  "about": "(Oncotarget, 2016)",
  "key": {"[1]": {"assay": "plasma pharmacokinetics after single oral dose", "conditions": "NSG mice", "protocol": "Plasma samples were obtained from 3-6 male NSG mice per time point (15min-24h after drug administration). Symbols represent concentrations of compound by LC/MS-MS detection.\nBlood samples were collected via retro-orbital bleeding into EDTA-coated tubes. PK samples were centrifuged to obtain plasma, which was stored frozen (−80°C) until liquid chromatography/triple quadrupole mass spectrometry (LC/MS-MS) analysis.\nwere separated using an Agilent Zorbax Eclipse C18 column (2.1 mm x 50 mm, 3.5 μm) using gradient mobile phase\n(acetonitrile and 2 mM ammonium acetate both containing 0.1% formic acid) and a gradient flow rate (0.2 to 0.4 ml/\nmin). An AB Sciex 5500 triple quadrupole mass spectrometer was used for detection. The m/z transitions used were\nThe calibration range was 5–1,000 ng/mL for all analytes. Mean drug concentrations were calculated at each time point. PK parameters (plasma\nhalf-life [T1/2]; time to reach Cmax [Tmax]; maximum plasma concentration [Cmax]; area under the plasma concentration-\ntime curve [AUC] from time zero to the last measurable concentration [AUClast]; AUC from time zero to infinity [i.e.,\nthe AUClast + the extrapolated AUC from AUClast to infinity; AUC0–∞]; apparent volume of distribution [Vz/F]; body\nweight-adjusted apparent clearance [CL/F/kg]) were calculated from mean drug concentration-time data using non-\nthe r2 of the elimination rate constant (λ ) was < 0.9, the AUC , CL/F, and T were not reported (NR)."}, "[2]": {"tested_on": "MOLM14 xenograft", "assay": "subcutaneous MOLM14 AML xenograft", "conditions": "for average tumor mass less than vehicle-treated tumors: day 21", "experimental": "CBCs were performed on day 23 (Supplementary Figure S8). Mice were euthanized when tumors reached an estimated 2000mg. […] B. Percent of Day 0 body weight. […] C. Kaplan-Meier survival analysis. […] D. Percent of Day 0 body weight."}, "[3]": {"tested_on": "MOLM14 or KOPN8 cells", "assay": "drug combinations, alamarBlue 48h, combination indices", "conditions": "for effect of addition on cytotoxicity of ARA, DOX, ETO, MID, LES, SOR: equipotency ratio based on IC50s, 48h", "experimental": "Supplementary Figure S10: Drug combinations against MOLM14. MOLM14 cells were treated with a range of concentrations\nexperiment was performed three times in triplicate, and error bars represent the SEM.\nCombination indices (CI) were computed for each drug combination using CompuSyn software, based on the Median Effect\nPrinciple and the CI theorem of Chou-Talalay, wherein CI = 1 indicates additivity, CI < 1 synergism, and CI > 1 antagonism. Data are\nSupplementary Figure S11: Drug combinations against KOPN8. KOPN8 cells were treated with a range of concentrations\nEach experiment was performed at least three times in triplicate, and error bars represent the SEM."}, "[4]": {"tested_on": "normal human CD34+ HSPCs", "assay": "clonogenicity of normal HSPCs", "assay_type": "cell-based", "experimental": "Cryopreserved human CD34^+ HSPCs from normal adult donors (Cellular Therapy and Cell Processing Facility, Fred Hutchinson Cancer Center, Seattle, WA) were thawed and cultured for 24h in StemSpanSFEM medium (Stemcell Technologies, Vancouver, BC, Canada) containing 100 ng/ml recombinant human (rh) stem cell factor, 20 ng/ml rh thrombopoietin, and 100 ng/ml rh FLT3 ligand (PeproTech, Rocky Hill, NJ), in the presence of the indicated drug concentrations prior to plating for clonogenic assays.\nCells pretreated with ART-838, AS, or vehicle for 24h were diluted and plated in MethoCult medium (Stemcell Technologies). After 7-10d (leukemia cells) or 10-14d (HSPCs), colonies (≥20 cells) were enumerated.\nSupplementary Figure S5: Effects of ART-838 and AS on clonogenicity of normal human CD34+ HSPCs. Normal human CD34+ HSPCs were pretreated with the indicated concentrations of ART-838, AS, or vehicle (0.5% DMSO) for 24 h then cultured in semi-solid medium for 10–14d before colonies were enumerated. A. Total hematopoietic colony counts, normalized to vehicle-treated controls (100%) and B. counts of types of colonies, i.e. erythroid (E); granulocyte/macrophage (sum of GM, G and M, combined) and multilineage progenitors (GEMM). Three independent experiments were performed. Data are represented as mean +/– SEM.\nSupplementary Figure S6: ART-838 and AS concentration-response curves for KOPN8 and MOLM14. […]"}, "[5]": {"tested_on": "primary B-ALL case #109", "assay": "intravenous B-ALL primagraft model", "protocol": "Mice were weighed weekly and tumors measured at least twice weekly. […] Mice were euthanized when tumors reached an estimated 2000mg. […] Mice were weighed weekly and observed daily for clinical signs of severe leukemia.\nHighly immunodeficient NSG mice, obtained originally from Jackson Laboratory (Bar Harbor, ME), were bred and housed in the UMSOM animal facilities, and handled in a laminar flow hood under aseptic conditions. All experiment procedures and animal care were in compliance with the NIH guidelines for the Care and Use of Laboratory Animals and approved by the UMSOM Institutional Animal Care and Use Committee. Drugs were formulated in Tween 80:ethanol (7:3, v:v) and diluted 1:10 in filtered deionized water immediately before administration. […] Mice were monitored daily and euthanized when tumors reached an estimated mass of 2000mg (using the formula: [length x width^2]/2, assuming density = 1 mg/mm^3) [56]. […] Mice were euthanized for clinical signs of severe leukemia or other severe distress [52].\nMice were weighed weekly and observed daily for clinical signs of severe"}, "[6]": {"tested_on": "K562 cells", "assay": "clonogenicity (colony formation in semi-solid medium)", "assay_type": "cell-based, human", "conditions": "24h pretreatment", "experimental": "(§1) page 2: Supplementary Figure S3: […] hours. Two B-ALL (KOPN8, SEM) and two AML (MOLM14, THP-1) cell lines were treated with the indicated concentrations of ART- 838 or AS for 24–96 h, then viability determined as in Figure 1A. Data are represented as mean +/– SD. Supplementary Figure S4: […] Colony-forming assays were performed as in Figure 1B in A. K562 and B. HL-60 AML cell lines. Each experiment was performed once in triplicate. Data are represented as mean +/– SD."}, "[7]": {"tested_on": "HL-60 cells", "assay": "clonogenicity (colony formation in semi-solid medium)", "assay_type": "cell-based, human", "conditions": "24h pretreatment", "experimental": "as §1"}, "[8]": {"tested_on": "MOLM14 cells", "assay": "apoptosis (Annexin-V/7-AAD flow cytometry)", "assay_type": "cell-based, human", "conditions": "24h", "experimental": "A. Quantification of the percentage of early apoptotic cells (Annexin-V+/7-AAD-) from three independent experiments in which cells were stained for apoptosis with 7-AAD and Annexin-V then analyzed by flow cytometry. […] C. […] 16h after addition of drugs, cells were washed and analyzed by flow cytometry for CM-H2DCFDA fluorescence (indicating total ROS generation) in the FL1 channel. Mean Fluorescence Intensity (MFI) was normalized to that of vehicle control (0.5% DMSO) with no pretreatment. […] Viable cell counts, obtained via Trypan Blue dye exclusion, were normalized to vehicle (0.02% DMSO)-treated samples +/– pretreatment.\nCells were co-stained with […] each 7-AAD and APC-conjugated Annexin-V (BioLegend), in Annexin-V binding buffer and analyzed by flow cytometry. Caspase-3/7 activity was measured using a Caspase-Glo 3/7 Assay (Promega, Madison, WI)."}, "[9]": {"tested_on": "MOLM14 cells", "assay": "cell cycle distribution (BrdU/7-AAD flow cytometry)", "assay_type": "cell-based, human", "conditions": "for sub-G1-phase cells: vehicle 2%; for S-phase cells: vehicle 38%; for G1-phase cells: vehicle 47%", "experimental": "After cell debris was gated out using FSC/SSC parameters, 10,000 cellular events were collected per sample. Data was analyzed and fluorescence compensation performed using FlowJo software, version 10 (Tree Star, Ashland, OR). A. Representative plots from a single experiment.\nCells were pulse-labeled with 10 μM 5-bromo-2-deoxyuridine (BrdU, BD Pharmingen, San Diego, CA) for 90min (37°C), washed in PBS, then fixed in 70% ethanol (1-3d, −20°C). DNA was denatured (2 M HCl, 30min, room temperature) and neutralized (0.1 M Na2B4O7, 10min, room temperature). Cells were stained with APC-conjugated anti-BrdU antibody (BD Pharmingen) and 7-AAD (BioLegend, San Diego, CA), and analyzed by flow cytometry."}, "[10]": {"conditions": "four 5-day cycles AS 150 mg/kg/d"}, "[11]": {"conditions": "plasma, single oral dose ART-838 50 mg/kg"}, "[12]": {"conditions": "four 5-day cycles ART-838 40 mg/kg/d"}},
  "note": "Where “and” joins values, the source holds several entries; their conditions need not be identical. Equal values may be shown once.",
  "data": [
    {"smiles": "C[C@H]1[C@H](OC(=O)CCC(=O)O)O[C@@H]2O[C@@]3(C)CC[C@H]4[C@H](C)CC[C@@H]1[C@@]24OO3", "note": "[AS, artesunate]", "values": [
      {"measurement": "time by which plasma declined to undetectable levels", "setting": "[1]; single oral dose AS 200 mg/kg", "result": "≤ 1", "unit": "h"},
      {"measurement": "average tumor mass less than vehicle-treated tumors", "setting": "[2]; two 5-day cycles AS 200 mg/kg/d oral gavage", "result": 44, "unit": "%"},
      {"measurement": "interaction with SOR", "setting": "[3]; combination indices", "result": "additive effects"},
      {"measurement": "effect of addition on cytotoxicity of ARA, DOX, ETO, MID, LES, SOR", "setting": "[3]", "result": "enhanced the cytotoxicity of all six tested drugs"},
      {"measurement": "reduction of normal erythroid and monogranulocytic colony-forming cells", "setting": "[4]; 10 μM AS, 24h pretreatment", "result": "< 25", "unit": "%"},
      {"measurement": "body weight loss following treatment", "setting": "[5]; [10]", "result": "No dose-limiting body weight loss"},
      {"measurement": "extension of mean survival time", "setting": "[5]; [10]", "result": 19, "unit": "days"},
      {"measurement": "prolongation of mean survival time", "setting": "[5]; [10]", "result": 51, "unit": "%"},
      {"measurement": "Mean time to severe clinical signs of leukemia (surrogate for survival)", "setting": "[5]; four 5-day cycles AS 150 mg/kg/d oral gavage, vehicle 37", "result": 56},
      {"measurement": "Mean time to severe clinical signs of leukemia (surrogate for survival)", "setting": "[5]; second experiment: two 5-day cycles AS 200 mg/kg/d, days 1 and 29, vehicle 28", "result": 43},
      {"measurement": "clonogenicity", "setting": "[6]", "result": "reduced clonogenicity"},
      {"measurement": "clonogenicity", "setting": "[7]", "result": "reduced clonogenicity"},
      {"measurement": "apoptosis", "setting": "[8]; AS 5 μM", "result": "induced significant apoptosis"},
      {"measurement": "sub-G1-phase cells", "setting": "[9]; 5 μM AS, 24h", "result": "> 10", "unit": "%"},
      {"measurement": "S-phase cells", "setting": "[9]; 5 μM AS, 24h", "result": "< 7", "unit": "%"},
      {"measurement": "G1-phase cells", "setting": "[9]; 5 μM AS, 24h", "result": "> 61", "unit": "%"}
    ]},
    {"smiles": "C[C@@H]1CCC2[C@@H](C)[C@@H](CC(COP(=O)(Oc3ccccc3)Oc3ccccc3)C[C@H]3O[C@@H]4O[C@@]5(C)CCC6[C@H](C)CCC([C@H]3C)[C@]64OO5)O[C@@H]3O[C@@]4(C)CCC1[C@@]23OO4", "note": "(stereo partly shown) [ART-838, artemisinin-derived trioxane diphenylphosphate dimer 838]", "values": [
      {"measurement": "fold longer T1/2 than DHA", "setting": "[1]; ART-838 50 mg/kg vs DHA after AS 200 mg/kg, oral", "result": "~6", "unit": "fold"},
      {"measurement": "detection of theoretical metabolites DHA and ART-606 in plasma", "setting": "[1]; after ART-838 administration, LC/MS-MS", "result": "did not detect DHA or ART-606"},
      {"measurement": "AUC0–∞", "setting": "[1]; [11]", "result": 951, "unit": "ng·h/mL"},
      {"measurement": "AUClast", "setting": "[1]; [11]", "result": 903, "unit": "ng·h/mL"},
      {"measurement": "CL/F/kg", "setting": "[1]; [11]", "result": 867, "unit": "mL/min/kg"},
      {"measurement": "Tmax", "setting": "[1]; [11]", "result": 1.5, "unit": "h"},
      {"measurement": "Vz/F", "setting": "[1]; [11]", "result": 241, "unit": "L/kg"},
      {"measurement": "T1/2", "setting": "[1]; plasma, single oral dose ART-838 50 mg/kg, 50 mg/kg", "result": "3.19 h and > 3 h"},
      {"measurement": "average tumor mass less than vehicle-treated tumors", "setting": "[2]; two 5-day cycles ART-838 50 mg/kg/d oral gavage", "result": 83, "unit": "%"},
      {"measurement": "complete and differential blood cell counts", "setting": "[2]; tumor-bearing NSG mice, day 23, after two 5-day cycles ART-838 50 mg/kg/d", "result": "within the normal range"},
      {"measurement": "interaction with kinase inhibitors MID, LES, SOR", "setting": "[3]; combination indices", "result": "combined synergistically with all three kinase inhibitors"},
      {"measurement": "effect of addition on cytotoxicity of ARA, DOX, ETO, MID, LES, SOR", "setting": "[3]", "result": "enhanced the cytotoxicity of all six tested drugs"},
      {"measurement": "reduction of normal erythroid and monogranulocytic colony-forming cells", "setting": "[4]; 1 μM ART-838, 24h pretreatment", "result": "< 25", "unit": "%"},
      {"measurement": "body weight loss following treatment", "setting": "[5]; [12]", "result": "No dose-limiting body weight loss"},
      {"measurement": "extension of mean survival time", "setting": "[5]; [12]", "result": 20, "unit": "days"},
      {"measurement": "prolongation of mean survival time", "setting": "[5]; [12]", "result": 55, "unit": "%"},
      {"measurement": "Mean time to severe clinical signs of leukemia (surrogate for survival)", "setting": "[5]; four 5-day cycles ART-838 40 mg/kg/d oral gavage, vehicle 37", "result": 57},
      {"measurement": "Mean time to severe clinical signs of leukemia (surrogate for survival)", "setting": "[5]; second experiment: two 5-day cycles ART-838 50 mg/kg/d, days 1 and 29, vehicle 28", "result": 47},
      {"measurement": "clonogenicity", "setting": "[6]", "result": "reduced clonogenicity"},
      {"measurement": "clonogenicity", "setting": "[7]", "result": "reduced clonogenicity"},
      {"measurement": "fold lower concentration than AS achieving similar levels of apoptosis and caspase-3/7 activity", "setting": "[8]", "result": 50, "unit": "fold"},
      {"measurement": "sub-G1-phase cells", "setting": "[9]; 0.1 μM ART-838, 24h", "result": "> 10", "unit": "%"},
      {"measurement": "S-phase cells", "setting": "[9]; 0.1 μM ART-838, 24h", "result": "< 7", "unit": "%"},
      {"measurement": "G1-phase cells", "setting": "[9]; 0.1 μM ART-838, 24h", "result": "> 61", "unit": "%"}
    ]}
  ]
}
